The numbers were not newly measured in patent publication US20140328789A1, “pH-RESPONSIVE CELL SCAFFOLD AND METHOD OF USING SAME” (Research Foundation of the City University of New York, priority 2013, published 2014), which cites them from elsewhere.

For this series the following is noted: for pKa1 Monomer: first pKa; for pKa: cross-linking agent; for pKa2 Monomer: second pKa; for pKa3 Monomer: third pKa.

Turning to `C=C(C)C(=O)OCCN(CC)CC` [2-diethylaminoethyl methacrylate], the “pKa Monomer” value is “pKa = 7.3”. As for `C=C(C)C(=O)OCCOP(=O)([O-])OCC[N+](C)(C)C` [2-methacryloyloxyethyl phosphorylcholine], the “pKa1 Monomer” value is on record as “pKa1 = 1.9”. Turning to `C/C=C/C(=O)OC(=O)/C=C/C` [Crotonic anhydride], the pKa entry is on record as “pKa = 4.61”. As for `C=C(C)C(=O)OC(=O)C(=C)C` [Methacrylic anhydride], the pKa result is reported as “pKa = 4.65”. Turning to `C=C(C)C(=O)OCCN(C)C` [N,N-Dimethylaminoethyl Methacrylate], the “pKa Monomer” value is given as “pKa = 7.3-7.5”.

As for `C=CC(=O)NC(C)C` [N-isopropylacrylamide (NIPAM), N-isopropylacrylamide], the “pKa Monomer” value is given as “pKa ≈ 6”. As to `C=C(C)C(=O)OC1CC(C)(C)N([O])C(C)(C)C1` [TEMPO methacrylate], the “pKa Monomer” value was “pKa = 5.5”.

With `C=C(C)C(=O)OCCN` [aminoethyl methacrylate (AEMA), aminoethyl methacrylate], the “pKa Monomer” value is “pKa = 8.8”. With `N[C@@H](CCC(=O)O)C(=O)O` [glutamic acid], the “pKa1 Monomer” value is 2.2, the “pKa2 Monomer” value is 4.25 and the “pKa3 Monomer” value is “pKa3 = 9.67”. Turning to `C=C(CC(=O)O)C(=O)O` [itaconic acid], the “pKa Monomer” value is reported as “pKa = 4.5”. On to `NCCCC[C@H](N)C(=O)O` [lysine], for which the “pKa1 Monomer” value is given as 2.2, the “pKa2 Monomer” value is on record as 9.0 and the “pKa3 Monomer” value is given as “pKa3 = 10.5”.

As to albumin, the “pKa Monomer” value is on record as “pKa = 7.4”.
